The source made the active and inactive calls. The rule behind the calls is not given here.
Tests used:
[1] = system: U-373MG ATCC; experiment: Antioxidant activity in human U373MG cells assessed as reduction in H2O2-induced cytotoxicity preincubated for 24 hrs before H2O2 challenge by MTT assay; format: functional, cell-based
[2] = system: U-373MG ATCC; experiment: Antioxidant activity in human U373MG cells assessed as reduction in H2O2-induced ROS production preincubated at 10 uM for 24 hrs before H2O2 challenge by DCFH-DA assay; format: functional, cell-based
[3] = target: T1, Nuclear factor erythroid 2-related factor 2 (Homo sapiens) (UniProt Q16236); experiment: Induction of Nrf2-mediated glutathione reductase protein expression in H2O2-stimulated human U373MG cells preincubated at 10 uM for 24 hrs before H2O2 challenge by Western blot method; format: cell-based; settings: U-373MG ATCC
T1 sequence (whole entry): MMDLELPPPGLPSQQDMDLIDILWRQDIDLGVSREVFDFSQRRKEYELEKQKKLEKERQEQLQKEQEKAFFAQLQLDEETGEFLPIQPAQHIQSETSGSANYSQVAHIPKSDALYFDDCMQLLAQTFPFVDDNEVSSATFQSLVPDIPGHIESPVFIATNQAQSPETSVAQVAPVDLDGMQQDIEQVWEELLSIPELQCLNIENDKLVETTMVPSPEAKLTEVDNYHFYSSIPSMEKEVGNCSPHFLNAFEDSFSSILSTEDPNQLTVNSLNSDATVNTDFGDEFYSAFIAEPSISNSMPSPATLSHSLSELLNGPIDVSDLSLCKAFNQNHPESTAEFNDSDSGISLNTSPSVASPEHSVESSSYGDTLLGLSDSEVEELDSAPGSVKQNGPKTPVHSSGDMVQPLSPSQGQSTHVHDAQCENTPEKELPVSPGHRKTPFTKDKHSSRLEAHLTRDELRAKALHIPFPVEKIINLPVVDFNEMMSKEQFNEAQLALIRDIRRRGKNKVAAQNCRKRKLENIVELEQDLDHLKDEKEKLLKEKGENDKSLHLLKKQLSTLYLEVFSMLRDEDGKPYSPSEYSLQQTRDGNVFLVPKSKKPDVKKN

[4] = target: T1, Nuclear factor erythroid 2-related factor 2 (Homo sapiens); experiment: Induction of Nrf2-mediated HO-1 protein expression in H2O2-stimulated human U373MG cells preincubated at 5 uM for 24 hrs before H2O2 challenge by Western blot method; format: cell-based; settings: U-373MG ATCC
[5] = target: T1, Nuclear factor erythroid 2-related factor 2 (Homo sapiens); experiment: Induction of Nrf2-mediated HO-1 protein expression in H2O2-stimulated human U373MG cells preincubated at 10 uM for 24 hrs before H2O2 challenge by Western blot method; format: cell-based; settings: U-373MG ATCC
[6] = system: U-373MG ATCC; experiment: Antioxidant activity in human U373MG cells assessed as reduction in H2O2-induced ROS production preincubated at 5 uM for 24 hrs before H2O2 challenge by DCFH-DA assay; format: functional, cell-based
[7] = Cytotoxicity against human U373MG cells at > 50 uM after 24 hrs by MTT assay; format: cell-based; settings: u-373mg atcc
[8] = system: U373 MG; experiment: Inhibition of H2O2-induced oxidative stress in human U373MG cells assessed as GSH level per mg protein at 5 uM by fluorimetric method (reference value: 17.1 +/- 1.7 nmol/mg protein); format: functional, U-373MG ATCC
[9] = system: U-373MG ATCC; experiment: Antioxidant activity in human U373MG cells assessed as reduction in H2O2-induced morphological changes preincubated at 10 uM for 24 hrs before H2O2 challenge by phase-contrast microscopy; format: functional, cell-based
[10] = target: T1, Nuclear factor erythroid 2-related factor 2 (Homo sapiens); experiment: Induction of Nrf2-mediated SOD protein expression in H2O2-stimulated human U373MG cells preincubated at 10 uM for 24 hrs before H2O2 challenge by Western blot method; format: cell-based; settings: U-373MG ATCC
[11] = system: U373 MG; experiment: Induction of CAT activity in human U373MG cells assessed per mg protein preincubated at 5 uM for 24 hrs before H2O2 challenge by fluorimetric method (reference value: 18.9 +/- 0.4 UI/mg protein); format: functional, U-373MG ATCC
[12] = system: U373 MG; experiment: Induction of selenium-dependent GPx activity in human U373MG cells assessed as […] per mg protein preincubated at 10 uM for 24 hrs before H2O2 challenge by fluorimetric method (reference value: 14.7 +/- 2.9 nmol/min/mg protein); format: functional, U-373MG ATCC
[13] = target: T1, Nuclear factor erythroid 2-related factor 2 (Homo sapiens); experiment: Induction of Nrf2-mediated glutathione reductase protein expression in H2O2-stimulated human U373MG cells preincubated at 5 uM for 24 hrs before H2O2 challenge by Western blot method; format: cell-based; settings: U-373MG ATCC
[14] = system: U373 MG; experiment: Induction of HO-1 activity in human U373MG cells assessed as bilirubin production per mg protein preincubated at 5 uM for 24 hrs before H2O2 challenge by fluorimetric method (reference value: 19.6 +/-3.5 pmol/hr/mg protein); format: functional, U-373MG ATCC
[15] = system: U-373MG ATCC; experiment: Antioxidant activity in human U373MG cells assessed as reduction in H2O2-induced cytotoxicity preincubated for 24 hrs before H2O2 challenge by LDH assay; format: functional, cell-based
[16] = system: U-373MG ATCC; experiment: Antioxidant activity in human U373MG cells assessed as reduction in H2O2-induced morphological changes preincubated at 5 uM for 24 hrs before H2O2 challenge by phase-contrast microscopy; format: functional, cell-based
[17] = system: U373 MG; experiment: Induction of CAT activity in human U373MG cells assessed per mg protein preincubated at 10 uM for 24 hrs before H2O2 challenge by fluorimetric method (reference value: 18.9 +/- 0.4 UI/mg protein); format: functional, U-373MG ATCC
[18] = system: U373 MG; experiment: Induction of HO-1 activity in human U373MG cells assessed as bilirubin production per mg protein preincubated at 10 uM for 24 hrs before H2O2 challenge by fluorimetric method (reference value: 19.6 +/-3.5 pmol/hr/mg protein); format: functional, U-373MG ATCC
[19] = system: U-373MG ATCC; experiment: Antioxidant activity in human U373MG cells assessed as reduction in H2O2-induced cytotoxicity preincubated at 5 uM for 24 hrs before H2O2 challenge by LDH assay; format: functional, cell-based
[20] = Cytotoxicity against human U373MG cells at > 10 uM after 24 hrs by MTT assay; format: cell-based; settings: u-373mg atcc
[21] = system: U-373MG ATCC; experiment: Antioxidant activity in human U373MG cells assessed as reduction in H2O2-induced cytotoxicity preincubated at 10 uM for 24 hrs before H2O2 challenge by MTT assay; format: functional, cell-based
[22] = system: U-373MG ATCC; experiment: Antioxidant activity in human U373MG cells assessed as reduction in H2O2-induced cytotoxicity preincubated at 10 uM for 24 hrs before H2O2 challenge by LDH assay; format: functional, cell-based
[23] = system: U-373MG ATCC; experiment: Antioxidant activity in human U373MG cells assessed as reduction in H2O2-induced cytotoxicity preincubated at 5 uM for 24 hrs before H2O2 challenge by MTT assay; format: functional, cell-based
[24] = Cytotoxicity against human U373MG cells at 1 to 100 uM after 24 hrs by LDH assay; format: cell-based; settings: u-373mg atcc
[25] = Antioxidant activity in human U373MG cells assessed as reduction in H2O2-induced ROS production preincubated at 5 to 10 uM for 24 hrs before H2O2 challenge by DCFH-DA assay relative to untreated control; format: functional, U-373MG ATCC
[26] = Cytotoxicity against human U373MG cells at 1 to 100 uM after 24 hrs by MTT assay; format: cell-based; settings: u-373mg atcc

Row | Activity [3] | Activity [4] | Activity [5] | Activity [10] | Activity [13] | Structure (SMILES) | Activity [1] | Activity [8] [nmol] | Activity [9] | Activity [11] [IU] | Activity [12] [nmol/min] | Activity [14] [pmol/h] | Activity [15] | Activity [16] | Activity [17] [IU] | Activity [18] [pmol/h] | further results
1 | Active | Active | Active | Active | Active | CC1(C)CCC[C@H]2C1=CC[C@H]1C[C@@](C)([C@@H](O)CO)C[C@@H](O)[C@@]12C [LAGASCATRIOL] | Dose-dependent effect | 27.6 | Active | 24.2 | 27.1 | 28.6 | Dose-dependent effect | Active | 23.9 | 32.6 | Activity [2]: Active; Activity [6]: Active; Activity [7]: Toxic
2 |  |  |  | inactive |  | CC1(C)CCC[C@]2(C)[C@@H]1C[C@H](O)[C@@]13C=C[C@@](CO)(C1)[C@H](O)C[C@@H]23 [CONCHITRIOL] |  | 18 | Active | 18.8 | 19.4 | 15.9 |  | Active | 17.4 | 17.8 | Activity [19]: Active; Activity [20]: Toxic; Activity [21]: Active; Activity [22]: Active; Activity [23]: Active
3 | Active | Active | Active | Active | Active | C=CC(=C)CC[C@H]1[C@]2(C)CCC[C@](C)(CO)[C@H]2[C@H](O)C[C@]1(C)O [ANDALUSOL] | Dose-dependent effect | 36.3 | Active | 22.1 | 29.9 | 30.6 | Dose-dependent effect | Active | 23.7 | 33.6 | Activity [24]: Non-toxic; Ratio [25]: 1.4; Activity [26]: Non-toxic
